Activity calls are given as the source filed them.
Columns and labels:
[1] = Trypanosoma cruzi growth suppression in host cells – NIH3T3 host cells, beta-gal luminescence, confirmation (AID 2044); type: functional, cell-based;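 further: intracellular parasites grown in NIH/3T3 mouse fibroblasts as host cells; luminescent beta-galactosidase reporter signal from transgenic T. cruzi replicating inside host cells; inhibitors lower the luminescence signal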
[2] = NIH3T3 cell viability loss – ATP luminescence, mouse fibroblasts, counter-screen, dose response (AID 2010); type: functional, cell-based;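 further: cells exposed to compound for about 90 hours before reading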
[3] = blockers of HIV-1 envelope-mediated cell-cell fusion – cherry-pick, dose response (AID 652057); type: functional, cell-based
[4] = blockers of HIV-1 ZM109 envelope-driven cell-cell fusion – HeLa effector, CEM target cells, luciferase, cherry-pick, dose response (AID 652058); type: functional, cell-based;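 further: luciferase signal from HIV-1 Env mediated cell-cell fusion of effector and target cells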
[5] = off-target signal loss in HeLa-CEM21 co-culture – HeLa F-luc CTL cells, cherry-picked, counter-screen for HIV-1 Env fusion inhibitor project, dose response (AID 652040); type: functional, cell-based;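 further: potency for signal decrease marking cytotoxic or nonspecific inhibition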
[6] = HIV-1 AD8 envelope cell-cell fusion blockers – cherry-pick, dose response (AID 652062); type: functional, cell-based;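 further: luciferase signal from cell-cell fusion driven by HIV-1 clade B AD8 Env; potency is for inhibitors of fusion seen as a drop in luminescence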
[7] = NIH-3T3 fibroblast cytotoxicity, dose response, cytotoxicity control, cell-based, fluorescence, Alamar Blue, secondary assay (AID 2327); type: functional;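 further: NIH-3T3 mouse fibroblasts cultured with fluconazole at 8 µg/mL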
[8] = fluconazole-exposed Candida albicans growth modulators – fluorescence, retest, confirmation (AID 2467); type: functional, cell-based
cells [9] = assay: cells
[10] = target: T1, Corticotropin-releasing factor receptor 2/Corticotropin-releasing factor-binding protein (Homo sapiens, UniProt P24387+Q13324); assay: Dose Response confirmation of uHTS hits for small molecule antagonists of the CRF-binding protein and CRF-R2 receptor complex.; type: functional; details: read-out: IC50_Mean
T1 sequence (Q13324 whole entry): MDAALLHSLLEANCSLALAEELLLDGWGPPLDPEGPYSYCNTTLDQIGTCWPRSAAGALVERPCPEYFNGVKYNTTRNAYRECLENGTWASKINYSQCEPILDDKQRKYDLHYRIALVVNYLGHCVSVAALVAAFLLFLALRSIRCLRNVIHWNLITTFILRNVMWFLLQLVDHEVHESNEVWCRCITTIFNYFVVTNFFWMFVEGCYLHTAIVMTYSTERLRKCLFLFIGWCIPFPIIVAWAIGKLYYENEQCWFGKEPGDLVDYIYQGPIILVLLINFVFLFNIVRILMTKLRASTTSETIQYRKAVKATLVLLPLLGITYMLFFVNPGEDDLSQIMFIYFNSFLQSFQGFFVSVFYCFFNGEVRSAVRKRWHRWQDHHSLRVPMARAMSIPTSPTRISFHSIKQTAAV
T1 sequence (P24387 whole entry): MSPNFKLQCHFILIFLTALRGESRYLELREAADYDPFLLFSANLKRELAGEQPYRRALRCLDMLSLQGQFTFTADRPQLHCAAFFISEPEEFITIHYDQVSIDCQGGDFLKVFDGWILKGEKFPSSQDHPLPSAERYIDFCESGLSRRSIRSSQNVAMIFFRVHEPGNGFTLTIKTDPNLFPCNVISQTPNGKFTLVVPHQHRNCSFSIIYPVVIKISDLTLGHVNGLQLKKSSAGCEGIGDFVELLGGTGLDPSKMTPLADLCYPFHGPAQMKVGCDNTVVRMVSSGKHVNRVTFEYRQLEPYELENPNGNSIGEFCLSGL

[11] = target: T1, Corticotropin-releasing factor receptor 2/Corticotropin-releasing factor-binding protein; assay: activators of CRF receptor 2 with binding protein – uHTS hits, confirmation (AID 602473); type: functional; details: read-out: EC50_Mean
[12] = blockers of CRF-binding protein–CRF-R2 complex – cell-based, uHTS hits, 384-well, dose response (AID 651639); type: functional, Homo sapiens; details: read-out: IC50_Mean
[13] = target: T2, Calpain-2 catalytic subunit (Sus scrofa, UniProt P43367); assay: m-calpain protease blockers, concentration series – biochemical, fluorogenic peptide substrate, dose response (AID 1420); type: functional
T2 sequence (P43367 whole entry): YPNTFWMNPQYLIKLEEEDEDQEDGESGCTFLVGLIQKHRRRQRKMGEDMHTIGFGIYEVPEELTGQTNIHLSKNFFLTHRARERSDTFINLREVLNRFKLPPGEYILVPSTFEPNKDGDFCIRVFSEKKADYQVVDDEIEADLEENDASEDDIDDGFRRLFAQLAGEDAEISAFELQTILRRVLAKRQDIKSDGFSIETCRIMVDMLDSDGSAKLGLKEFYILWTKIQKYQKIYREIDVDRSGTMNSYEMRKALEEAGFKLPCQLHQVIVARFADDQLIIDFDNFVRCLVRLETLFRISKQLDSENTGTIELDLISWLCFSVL

cells [14] = type: functional, cell-based
cells [15] = type: functional, cell-based; remark: listed apart in the source

| IC50 [10] | EC50 [11] | Compound | EC50 [1] | EC50 [2] | EC50 (cells [9]) | further results |
| --- | --- | --- | --- | --- | --- | --- |
| – | – | CCN(C1CCCCC1)S(=O)(=O)c1ccc(S(=O)(=O)N(CC(=O)Nc2ccccc2)C2CC2)cc1 | 1.93 µM (active) | > 60 µM (not active) | – | AC50 [3]: 4.9 µM (active); AC50 [4]: 6.25 µM (active); AC50 [5]: 27.9 µM (active); AC50 [6]: 7.31 µM (active) |
| – | – | CC1CCc2c(sc3ncnc(N4CCOCC4)c23)C1 (stereo not given) | – | – | – | EC50 [7]: > 160 µM (inactive); EC50 [8]: > 38 µM (not active); AC50 [3]: 22.5 µM (active); AC50 [4]: 0.858 µM (active); AC50 [5]: 20.8 µM (active); AC50 [6]: 4.54 µM (active) |
| – | – | CC(C)Cc1ccc(CN2CCCC(NC(=O)c3nn(C)c(=O)c4ccccc34)C2)cc1 (stereo not given) | < 0.1 µM (active) | 8.66 µM (active) | 0.021 µM (active) | – |
| < 0.368 µM (active) | > 53 µM (inactive) | CCCCN(c1ccc(C(=O)OC)cc1)S(=O)(=O)c1ccccc1 | – | – | – | IC50 [12]: > 20 µM (inactive) |
| – | – | CCCCN(C)Cc1c(C)nc2c(Cl)cccc2c1O | < 0.1 µM (active) | > 60 µM (not active) | 0.074 µM (active) | – |
| – | – | S=C(NCCc1ccccc1)N1CCn2cccc2C1c1cccnc1 (stereo not given) | < 0.1 µM (active) | > 60 µM (not active) | 0.112 µM (active) | – |
| 2.16 µM (active) | > 53 µM (inactive) | CC(=O)c1ccc(N2CCN(C(=O)c3cccc(Oc4ccccc4)c3)CC2)cc1 | – | – | – | IC50 [13]: 12.3 µM (not active); IC50 [12]: 6.67 µM (active) |
| – | – | Cc1ccc(-n2nc3c(=O)n(CC(=O)NCCc4ccccc4C)nc(C)c3c2C)cc1 | – | – | – | IC50 (cells [14]): > 29.9 µM (inactive); EC50 (cells [15]): > 29.9 µM (inactive) |

| Compound | IC50 [10] | EC50 [11] | EC50 [1] | EC50 [2] | EC50 (cells [9]) | further results |
| --- | --- | --- | --- | --- | --- | --- |
| O=C(CNc1ccccc1)N/N=C/c1ccc([N+](=O)[O-])o1 | > 47.1 µM (inactive) | > 53 µM (inactive) | < 0.1 µM (active) | > 60 µM (not active) | 0.091 µM (active) | – |
